This note sets out measurements from patent US6376510B1, “Neuromuscular relaxants” (Newlaxant LLC, priority 1997, dated 2002).

Series [1] concerns anesthetized juvenile pigs. Description: animal or person. Type of series: in vivo. As to conditions: pig; for ED50: intravenous dose causing 50% neuromuscular block; for RI (recovery index): spontaneous recovery, 25-75% neuromuscular response; for Onset: time to 80-85% neuromuscular block. The text has this: Both electromyographic and mechanomyographic responses can be quantified.
The techniques described under a) and b) were employed in other species as needed with the modification that juvenile pigs were initially anesthetized with inhalation of halothane (Table 5) and monkeys were initially sedated with intramuscular ketamine injections prior to inducing and maintaining general anesthesia using pentobarbital and propofol administered intravenously (Table 6).

Series [2] has as its system anesthetized rats (evoked responses of anterior tibial muscle). Put plainly: In vivo neuromuscular block and cardiovascular side effects, anesthetized rat (Example 8, Table 3). The settings on record: for RI (recovery index): spontaneous recovery, 25-75% neuromuscular response; for Onset: time to 80-85% neuromuscular block. From the text:
The neuromuscular blocking activity and other effects (e.g. cardiovascular side effects) of selected agents were investigated on several different experimental animals. Justification for this approach lies in the commonly known fact that the pharmacodynamic and pharmacokinetic properties of these agents are markedly variable from species to species. Therefore, the most important aspects of the projected therapeutic utility of these agents, e.g., neuromuscular blocking potency, onset and duration of action, and side effects cannot be ascertained in “in vitro” preparations or by using only one species of animals.
a) Adult, male albino rats were anesthetized with pentobarbital injected intraperitoneally. The trachea was cannulated for artificial respiration via a small animal respirator. The carotid artery was cannulated for recording blood pressure via a transducer and heart rate by a cardiotachograph on a polygraph. One external jugular vein was cannulated for i.v. drug administration. Neuromuscular function was monitored by electromyography, recording evoked responses from the anterior tibial muscle as a result of supramaximal nerve stimuli consisting of single or “train-of-four” rectangular pulses of 0.1-0.2 msec duration every 10-12 seconds, delivered to the sciatic or common peroneal nerve by a laboratory nerve stimulator. Another mode of stimulation included repeated single stimuli delivered at 0.1 Hz or 1 Hz. […] The agents were dissolved in physiologic saline and injected intravenously at appropriate time intervals. The intensity, onset, and duration of neuromuscular block and its type were determined with each agent. Through administering several doses, the doses corresponding to 50%, 80% and 90% neuromuscular block were determined. All agents were compared with selected standard neuromuscular blocking compounds, e.g. succinylcholine, pancuronium, mivacurium, or rocuronium.
Onset=time in minutes to 80-85% neuromuscular block.
RI=recovery index, minutes, spontaneous recovery, 25-75% neuromuscular response.
VB=vagal block, %, at 80-85% neuromuscular blocking dose.
ΔHR=change in heart rate, %, at 80-85% neuromuscular blocking dose.
ΔBP=change in arterial blood pressure, %, at 80-85% neuromuscular blocking dose.

The next series concerns rabbits. Put plainly: In vivo neuromuscular block and cardiovascular side effects, rabbit (Example 8, Table 7). As to conditions: for ED50: intravenous dose causing 50% neuromuscular block; for RI (recovery index): spontaneous recovery, 25-75% neuromuscular response; for Onset: time to 80-85% neuromuscular block.
The mark [3] stands for this setting: rat, intravenous dose causing 50% neuromuscular block.
The mark [4] stands for this setting: at 80-85% neuromuscular blocking dose.
Where [5] appears, read: rat, at 80-85% neuromuscular blocking dose.
Where [6] appears, read: Oryctolagus cuniculus, read-out: ED50.

The structures appear in SMILES notation. Read-outs that look alike come from different tables or passages of the source.

Turning to `CCC(=O)Oc1ccc(C[N+]2(C)C3CCCC2CC(OC(=O)CCCC(=O)OC2CC4CCCC(C2)[N+]4(C)Cc2ccc(OC(=O)CC)c(OC(=O)CC)c2)C3)cc1OC(=O)CC.[Br-].[Br-]` (centres unmarked) [bis[N-(3,4-dipropionyloxybenzyl)granataninium-3-yl]glutarate dibromide], the “VB (vagal block)” value in series [1] (in vivo) was determined as 35%; in series [2] (rat, in vivo), 0%. In addition, the “ΔBP (change in arterial blood pressure)” value in series [1] (in vivo) was determined as 0%; in series [2] (rat, in vivo) it was 0%; in the series on rabbits (in vivo), 0%. Besides, the “ΔH (change in heart rate)” value amounted to 0% in series [1] (in vivo); 0% in series [2] (rat, in vivo); 0% in the series with rabbits (in vivo). In addition, the results for the 50% effective dose (ED50) (in series [1]; in series [2] (setting [3]); in the series on rabbits) were 0.23 mg/kg, 0.26 mg/kg and 0.135 mg/kg, respectively. The “RI (recovery index)” value in series [1] worked out at 0.65 min; in series [2] (rat), 0.4 min; in the series with rabbits it was 0.55 min. Besides, the Onset was determined as 0.5 min in series [1], 0.55 min in series [2] (rat) and 0.7 min with rabbits.

In the case of `CCC(=O)Oc1ccc(C[N+]2(C)C3CCCC2CC(OC(=O)CCCCCC(=O)OC2CC4CCCC(C2)[N+]4(C)Cc2ccc(OC(=O)CC)c(OC(=O)CC)c2)C3)cc1OC(=O)CC.[Br-].[Br-]` (centres unmarked) [bis[N-(3,4-dipropionyloxybenzyl)granataninium-3-yl]pimelate dibromide], the “VB (vagal block)” value in series [1] (in vivo) stood at 30%; in series [2] (rat, in vivo), 2%. The “ΔBP (change in arterial blood pressure)” value in series [1] (in vivo) is 0%; in series [2] (rat, in vivo) it was −6%; in the series on rabbits (in vivo), 0%. Moreover, the “ΔH (change in heart rate)” value in series [1] (in vivo) is on record as 0%; in series [2] (rat, in vivo), −3%; in the series with rabbits (in vivo), 0%. Further, the ED50 in series [1] was determined as 0.7 mg/kg; in series [2] (setting [3]) it was 0.45 mg/kg; in the series on rabbits, 0.5 mg/kg. The “RI (recovery index)” value in series [1] is 0.5 min; in series [2] (rat), 0.35 min; with rabbits it was 0.4 min. The Onset is 0.5 min in series [1], 0.5 min in series [2] (rat) and 0.45 min with rabbits.

With `CCC(=O)Oc1ccc(C[N+]2(C)[C@@H]3CC[C@H]2C[C@@H](OC(=O)CCCCC(=O)O[C@H]2C[C@H]4CC[C@@H](C2)[N+]4(C)Cc2ccc(OC(=O)CC)c(OC(=O)CC)c2)C3)cc1OC(=O)CC.[Br-].[Br-]` (stereo partly drawn) [bis[N-(3,4-dipropionyloxybenzyl)tropanium-3α-yl]adipate dibromide], the median effective dose (ED50) in series [1] (Sus scrofa, read-out: ED50) amounted to 0.3 mg/kg; in series [2] (Rattus norvegicus, iv) it was 0.217 mg/kg; in the series on rabbits (setting [6]) it was 0.075 mg/kg. The “VB (vagal block)” value was 65% in series [1] (setting [4]) and 18% in series [2] (setting [5]). Further, the “ΔBP (change in arterial blood pressure)” value (in series [1] (setting [4]); in series [2] (setting [5]); in the series on rabbits (setting [4])) was 0% each time. Also, the “ΔH (change in heart rate)” value (in series [1] (setting [4]); in series [2] (setting [5]); in the series on rabbits (setting [4])) was 0% throughout. Moreover, the “RI (recovery index)” value in series [1] amounted to 0.75 min; in series [2] (rat) it was 0.4 min; in the series on rabbits, 0.65 min. Moreover, the Onset amounted to 0.65 min in series [1], 0.6 min in series [2] (rat) and 0.9 min in the series with rabbits.

As to `CCC(=O)Oc1ccc(C[N+]2(C)[C@@H]3CC[C@H]2C[C@@H](OC(=O)C2CCC2C(=O)O[C@H]2C[C@H]4CC[C@@H](C2)[N+]4(C)Cc2ccc(OC(=O)CC)c(OC(=O)CC)c2)C3)cc1OC(=O)CC.[Br-].[Br-]` (stereo partly drawn) [bis[N-(3,4-dipropionyloxybenzyl)tropanium-3α-yl]cyclobutane-1,2-dicarboxylate dibromide], the ED50 was found to be 0.317 mg/kg in series [1] (Sus scrofa, read-out: ED50); 0.238 mg/kg in series [2] (Rattus norvegicus, iv); 0.128 mg/kg in the series on rabbits (setting [6]). Also, the “VB (vagal block)” value turned out to be 50% in series [1] (setting [4]) and 17% in series [2] (setting [5]). For the same compound, the “ΔBP (change in arterial blood pressure)” value (in series [1] (setting [4]); in series [2] (setting [5]); in the series on rabbits (setting [4])) was 0% throughout. Also, the “ΔH (change in heart rate)” value (in series [1] (setting [4]); in series [2] (setting [5]); in the series with rabbits (setting [4])) was 0% each time. The entries for the “RI (recovery index)” value (in series [1]; in series [2] (rat); in the series with rabbits) were 0.6 min, 0.6 min and 0.5 min, respectively. The Onset in series [1] was 0.7 min; in series [2] (rat), 0.6 min; in the series with rabbits it was 0.87 min.

Regarding `CCC(=O)Oc1ccc(C[N+]2(C)[C@@H]3CC[C@H]2C[C@@H](OC(=O)CCCC(=O)O[C@H]2C[C@H]4CC[C@@H](C2)[N+]4(C)Cc2ccc(OC(=O)CC)c(OC(=O)CC)c2)C3)cc1OC(=O)CC.[Br-].[Br-]` (stereo partly drawn) [bis[N-(3,4-dipropionyloxybenzyl)tropanium-3α-yl]glutarate dibromide], the ED50 in series [1] (Sus scrofa, read-out: ED50) is 0.45 mg/kg; in series [2] (Rattus norvegicus, iv) it was 0.3 mg/kg; in the series on rabbits (setting [6]), 0.065 mg/kg. The “VB (vagal block)” value is given as 70% in series [1] (setting [4]) and 0% in series [2] (setting [5]). Also, the “ΔBP (change in arterial blood pressure)” value (in series [1] (setting [4]); in series [2] (setting [5]); with rabbits (setting [4])) was 0% throughout. Besides, the “ΔH (change in heart rate)” value (in series [1] (setting [4]); in series [2] (setting [5]); with rabbits (setting [4])) was 0% each time. Besides, the “RI (recovery index)” value was determined as 0.6 min in series [1], 0.5 min in series [2] (rat) and 0.8 min in the series with rabbits. Also, the values for the Onset (in series [1]; in series [2] (rat); with rabbits) were 1.1 min, 0.7 min and 1 min, respectively.

For `CCC(=O)Oc1c(OC)cc(C[N+]2(C)[C@@H]3CC[C@H]2C[C@@H](OC(=O)C2CCCC(C(=O)O[C@H]4C[C@H]5CC[C@@H](C4)[N+]5(C)Cc4cc(OC)c(OC(=O)CC)c(OC)c4)C2)C3)cc1OC.[Br-].[Br-]` (stereo partly drawn) [bis[N-(3,5-dimethoxy-4-propionyloxybenzyl)tropanium-3α-yl]cyclohexane-1,3-dicarboxylate dibromide], the ED50 in series [1] (Sus scrofa, read-out: ED50) was 0.25 mg/kg; in series [2] (Rattus norvegicus, iv), 0.27 mg/kg; in the series on rabbits (setting [6]), 0.4 mg/kg. For the same compound, the figures for the “VB (vagal block)” value in series [1] (setting [4]) and in series [2] (setting [5]) were 30% and 0%, respectively. The “ΔBP (change in arterial blood pressure)” value (in series [1] (setting [4]); in series [2] (setting [5]); in the series with rabbits (setting [4])) was 0% throughout. Besides, the “ΔH (change in heart rate)” value (in series [1] (setting [4]); in series [2] (setting [5]); in the series with rabbits (setting [4])) was 0% throughout. Besides, the “RI (recovery index)” value in series [1] was 1.3 min; in series [2] (rat), 0.45 min; with rabbits, 0.4 min. Also, the Onset in series [1] is 0.7 min; in series [2] (rat), 0.55 min; in the series with rabbits, 0.45 min.

In the case of `COc1cc(C[N+]2(C)[C@@H]3CC[C@H]2C[C@@H](OC(=O)CCCCCCCCCC(=O)O[C@H]2C[C@H]4CC[C@@H](C2)[N+]4(C)Cc2cc(OC)c(OC(C)=O)c(OC)c2)C3)cc(OC)c1OC(C)=O.[Br-].[Br-]` (stereo partly drawn) [bis[N-(4-acetoxy-3,5-dimethoxybenzyl)tropanium-3α-yl]1,9-nonanedicarboxylate dibromide], the 50% effective dose (ED50) was 0.6 mg/kg in series [1] (Sus scrofa, read-out: ED50); 0.5 mg/kg in series [2] (Rattus norvegicus, iv); 0.5 mg/kg with rabbits (setting [6]). For the same compound, the “VB (vagal block)” value in series [1] (setting [4]) was 90%; in series [2] (setting [5]) it was 99%. Besides, the “ΔBP (change in arterial blood pressure)” value (in series [1] (setting [4]); in series [2] (setting [5]); in the series with rabbits (setting [4])) was 0% each time. Also, the “ΔH (change in heart rate)” value (in series [1] (setting [4]); in series [2] (setting [5]); with rabbits (setting [4])) was 0% throughout. Also, the “RI (recovery index)” value in series [1] was 1.2 min; in series [2] (rat) it was 0.5 min; in the series on rabbits it was 0.35 min. The Onset in series [1] worked out at 0.5 min; in series [2] (rat), 0.4 min; with rabbits, 0.35 min.

For orientation: ED50 means the dose that gives a 50% effect, or the effect in half of the subjects.
